Test results from patent US12728147B2, “Composition for preventing or treating inflammatory disease comprising hydrolysis extract of pulsatilla koreana and anemone raddeana as active ingredient” (priority 2020, dated 2026).
Like-named read-outs stand apart in the source and are kept apart here.

Assays:
[1] = tested on: human umbilical vein endothelial cells (HUVECs); details: cited from earlier work
[2] = tested on: rats with edema induced with carrageenan; assay type: in vivo; details: for Average edema reduction percent: average of the reduction percent values after 2, 3 and 4 hours
Description: Each experimental group was composed of three Wistar rats, and the edema was formed by subplantar injection of 0.1 ml of a 1% (w/v) lambda carrageenan solution to the left hind paw of the rats. By the same method, 0.1 ml of physiological saline was injected into the right hind paw. […] For the control, 2 ml of physiological saline was used. As for Comparative Example 1, the group was orally administered with 10 mg/kg indomethacin. The medicinal effect was assayed as percentage (%) by measuring the volume of edema from 2 hours to 4 hours in 1 hour units after carrageenan administration. [{1−S/C}×100] (S: edema volume in the preparation administration group, C: edema volume in the carrageenan administration group) The volume of edema was measured by water plethysmography. As for Preparation 16, the anti-inflammatory effect was observed by direct injection of […] into the point of carrageenan injection on the rats. This method was used considering that in the vertebral skeletal diseases, drugs are often directly injected into affected areas in clinical practice, and the method can also be applied to the herbal acupuncture in oriental medicine. In the present invention, 0.2 ml of Preparation 14 was selected and directly injected twice at an interval of 30 minutes to the point of carrageenan injection on the left hind paw of the rats (Comparative Example 6). That is, the injection was conducted at 150 minutes and 180 minutes after carrageenan injection, and the anti-inflammatory assay was conducted 240 minutes (4 hours after carrageenan injection). Comparative Example 2 was a Preparation of 1 mg of HcolA1 mixed with 1 mg of HcolA. The control was used for a physiological saline administration group.
The edema size reduction percent (%) was expressed as the ratio of the edema size by each preparation after each hour relative to the size of edema (control) by carrageenan injection after each hour as shown below, and the average reduction percent of edema was expressed as an average value of the reduction percent values of each preparation after 2, 3, or 4 hours. Edema size reduction percent (%)={1−(edema size by each preparation/edema size by control)}×100

[3] = tested on: carrageenan-induced rat paw inflammation; details: literature report; cited from earlier work

COC1C(=O)Oc2ccccc2C1(COC(=O)C=C(C)C)OC (centres unmarked) [4-senecioyloxymethyl-3,4-dimethoxycoumarin]
Inhibition of HUVEC angiogenesis ([1]; at 1 μg/ml): 53%

COc1ccc2c(c1)c(CC(=O)O)c(C)n2C(=O)c1ccc(Cl)cc1 [Comparative Example 1, Indomethacin]
Edema size reduction percent, 2 hours ([2]; 2 hours after carrageenan, relative to control): 0.012(63) %
Edema size reduction percent, 3 hours ([2]; 3 hours after carrageenan, relative to control): 0.043(64) %
Edema size reduction percent, 4 hours ([2]; 4 hours after carrageenan, relative to control (Comparative Example 6: direct injection into point of carrageenan injection)): 0.023(63) %
Edema size over time (hour) after treatment, 4 hours ([2]; 4 hours after carrageenan, 1 ml i.p. 1 h before edema induction (Comparative Example 1 oral; Comparative Example 6: 0.2 ml injected directly twice at 150 and 180 min), mean): 0.321
Average edema reduction percent [2]: (63.3) %
Average edema reduction percent ([2]; listed as indomethacin): 63.3%

C[C@@H]1O[C@@H](O[C@H]2[C@H](O[C@H]3CC[C@]4(C)[C@H]5CC=C6[C@@H]7CC(C)(C)CC[C@]7(C(=O)O)CC[C@@]6(C)[C@]5(C)CC[C@H]4C3(C)C)OC[C@H](O[C@@H]3O[C@H](CO)[C@@H](O)[C@H](O)[C@H]3O)[C@@H]2O)[C@H](O)[C@H](O)[C@H]1O [hederacolchiside A1]
Inhibition of HUVEC angiogenesis ([1]; at a concentration of 2 μg/ml): 100%

C[C@@H]1O[C@@H](O[C@H]2[C@H](O[C@H]3CC[C@@]4(C)[C@@H](CC[C@]5(C)[C@@H]4CC=C4[C@@H]6CC(C)(C)CC[C@]6(C(=O)O)CC[C@]45C)[C@]3(C)CO)OC[C@H](O[C@@H]3O[C@H](CO)[C@@H](O)[C@H](O)[C@H]3O)[C@@H]2O)[C@H](O)[C@H](O)[C@H]1O [hederacolchiside A]
Inhibition of HUVEC angiogenesis ([1]; at a concentration of 2 μg/ml): did not show such activity

COc1cc([C@@H]2c3cc4c(cc3C[C@H]3COC(=O)[C@@H]32)OCO4)cc(OC)c1OC [deoxypodophyllotoxin]
Inhibition of HUVEC angiogenesis ([1]; at a concentration of 3 ng/ml): 100%

CCC[C@H](CC/C=C/C=C/C#CC#C/C=C\CO)OC(C)=O [acetylbupleurotoxin]
Inhibition of HUVEC angiogenesis ([1]; at a concentration of 30 μg/ml): 100%

C[C@@H]1O[C@@H](O[C@H]2[C@H](O[C@H]3CC[C@]4(C)[C@H]5CC=C6[C@@H]7CC(C)(C)CC[C@]7(C(=O)O[C@@H]7O[C@H](CO[C@@H]8O[C@H](CO)[C@@H](O[C@@H]9O[C@@H](C)[C@H](O)[C@@H](O)[C@H]9O)[C@H](O)[C@H]8O)[C@@H](O)[C@H](O)[C@H]7O)CC[C@@]6(C)[C@]5(C)CC[C@H]4C3(C)C)OC[C@H](O[C@@H]3O[C@H](CO)[C@@H](O)[C@H](O)[C@H]3O)[C@@H]2O)[C@H](O)[C@H](O)[C@H]1O [HcolE, hederacolchiside E]
Anti-inflammatory effect on carrageenan-induced rat paw inflammation [3]: insignificant

CCC[C@H](O)CC/C=C/C=C/C#CC#C/C=C\CO [bupleurotoxin]
Inhibition of HUVEC angiogenesis ([1]; at a concentration of 30 μg/ml): 100%

C[C@@H]1O[C@@H](O[C@H]2[C@H](O[C@H]3CC[C@@]4(C)[C@@H](CC[C@]5(C)[C@@H]4CC=C4[C@@H]6CC(C)(C)CC[C@]6(C(=O)O[C@@H]6O[C@H](CO[C@@H]7O[C@H](CO)[C@@H](O[C@@H]8O[C@@H](C)[C@H](O)[C@@H](O)[C@H]8O)[C@H](O)[C@H]7O)[C@@H](O)[C@H](O)[C@H]6O)CC[C@]45C)[C@]3(C)CO)OC[C@H](O[C@@H]3O[C@H](CO)[C@@H](O)[C@H](O)[C@H]3O)[C@@H]2O)[C@H](O)[C@H](O)[C@H]1O [HcolF, hederacolchiside F]
Anti-inflammatory effect on carrageenan-induced rat paw inflammation [3]: confirmed in a predetermined range
